According to ChEMBL document CHEMBL1156378, “A new dimeric stilbene with tyrosinase inhibitiory activity from Artocarpus gomezianus” (J Nat Prod, 2001):

Target: T1, Tyrosinase (Agaricus bisporus, UniProt O42713)
T1 sequence (O42713 whole entry): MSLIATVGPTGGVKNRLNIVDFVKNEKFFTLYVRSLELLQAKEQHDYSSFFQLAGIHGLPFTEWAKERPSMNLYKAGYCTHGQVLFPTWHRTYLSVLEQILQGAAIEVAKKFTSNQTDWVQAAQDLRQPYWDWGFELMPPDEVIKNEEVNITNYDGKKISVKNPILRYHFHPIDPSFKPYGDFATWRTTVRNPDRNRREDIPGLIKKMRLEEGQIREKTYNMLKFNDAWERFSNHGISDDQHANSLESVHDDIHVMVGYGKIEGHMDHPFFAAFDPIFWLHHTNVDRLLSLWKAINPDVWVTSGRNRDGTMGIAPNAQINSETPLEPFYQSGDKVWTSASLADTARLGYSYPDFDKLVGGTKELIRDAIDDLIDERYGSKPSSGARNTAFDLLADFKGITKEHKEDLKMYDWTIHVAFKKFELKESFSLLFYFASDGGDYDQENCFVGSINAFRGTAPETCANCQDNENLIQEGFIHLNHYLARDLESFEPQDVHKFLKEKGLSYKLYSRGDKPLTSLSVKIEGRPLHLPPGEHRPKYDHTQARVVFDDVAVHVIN
Description: Inhibition of mushroom tyrosinase

In the case of Oc1cc(O)cc(/C=C/c2cc(C(Cc3cc(O)cc(O)c3)c3ccc(O)cc3O)c(O)cc2O)c1 (configuration not stated) [ARTOGOMEZIANOL], the IC50 is reported as 68 µM.

Work on Oc1cc(O)cc(CC(c2ccc(O)cc2O)c2c(O)cc(/C=C/c3ccc(O)cc3O)cc2O)c1 (configuration not stated) [ANDALASIN A] yielded an IC50 of 39 µM.
